Reference: US9670227B2, “Thienopyrimidine derivatives, a process for their preparation and pharmaceutical compositions containing them” (LES LABORATOIRES SERVIER, priority 2013, dated 2017)

Target: Mcl-1 protein (UniProtKB primary accession number: Q07820) (Homo sapiens, UniProt Q07820)
Assay: Inhibition of Mcl-1 by fluorescence polarisation, Method 1
Assay type: binding
Conditions: fluorescence polarisation; Method 1, or Method 2; read-out: IC50 (M) Mcl-1 FP
Summary of the method: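 Fluorescence polarisation competition with an 11-point compound dilution series (final DMSO 5%). Mcl-1 protein at 5 nM and fluorescein-labelled ligand at 1 nM (final) in 10 mM HEPES, 150 mM NaCl, 0.05% Tween 20, pH 7.4.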

Chain of Mcl-1 protein (Q07820 whole entry): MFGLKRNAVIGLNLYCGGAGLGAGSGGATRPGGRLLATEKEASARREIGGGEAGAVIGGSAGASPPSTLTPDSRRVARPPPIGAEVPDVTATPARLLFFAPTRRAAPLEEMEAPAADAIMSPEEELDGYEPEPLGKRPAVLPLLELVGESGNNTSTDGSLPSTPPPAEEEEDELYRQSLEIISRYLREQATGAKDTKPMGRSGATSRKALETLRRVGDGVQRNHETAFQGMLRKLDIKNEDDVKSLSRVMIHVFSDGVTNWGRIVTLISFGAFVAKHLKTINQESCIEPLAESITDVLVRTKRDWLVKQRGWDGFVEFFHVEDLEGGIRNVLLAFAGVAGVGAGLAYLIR

Row | Structure (SMILES) | IC50
1 | Cc1c(-c2c(-c3cc4ccccc4o3)sc3ncnc(OC(Cc4ccccc4)C(=O)O)c23)ccc(OCCN2CCN(C)CC2)c1Cl [Example 496, (2R)-2-{[6-(1-benzofuran-2-yl)-(5Sa)-5-{3-chloro-2-methyl-4-[2-(4-methylpiperazin-1-yl)ethoxy]phenyl}thieno[2,3-d]pyrimidin-4-yl]oxy}-3-phenylpropanoic acid] | 2e-07 M
2 | Cc1c(-c2c(-c3ccncc3)sc3ncnc(OC(Cc4ccccc4)C(=O)O)c23)ccc(OCCN2CCN(C)CC2)c1Cl [Example 507, (2R)-2-{[(5Sa)-5-{3-chloro-2-methyl-4-[2-(4-methylpiperazin-1-yl)ethoxy]phenyl}-6-(pyridin-4-yl)thieno[2,3-d]pyrimidin-4-yl]oxy}-3-phenylpropanoic acid] | 2.2e-07 M
3 | Cc1c(-c2c(-c3ccnn3C)sc3ncnc(OC(Cc4ccccc4)C(=O)O)c23)ccc(OCCN2CCN(C)CC2)c1Cl [Example 508, (2R)-2-{[(5Sa)-5-{3-chloro-2-methyl-4-[2-(4-methylpiperazin-1-yl)ethoxy]phenyl}-6-(1-methyl-1H-pyrazol-5-yl)thieno[2,3-d]pyrimidin-4-yl]oxy}-3-phenylpropanoic acid] | 3.7e-07 M
4 | Cc1sccc1-c1sc2ncnc(OC(Cc3ccccc3)C(=O)O)c2c1-c1ccc(OCCN2CCN(C)CC2)c(Cl)c1C [Example 511, (2R)-2-{[(5Sa)-5-{3-chloro-2-methyl-4-[2-(4-methylpiperazin-1-yl)ethoxy]phenyl}-6-(2-methylthiophen-3-yl)thieno[2,3-d]pyrimidin-4-yl]oxy}-3-phenylpropanoic acid] | 4.8e-07 M
5 | Cc1c(-c2c(-c3cnn(C)c3)sc3ncnc(OC(Cc4ccccc4)C(=O)O)c23)ccc(OCCN2CCN(C)CC2)c1Cl [Example 513, (2R)-2-{[(5Sa)-5-{3-chloro-2-methyl-4-[2-(4-methylpiperazin-1-yl)ethoxy]phenyl}-6-(1-methyl-1H-pyrazol-4-yl)thieno[2,3-d]pyrimidin-4-yl]oxy}-3-phenylpropanoic acid] | 3.7e-07 M

The next compounds have a lower IC50 than those just listed; values first:

Row | IC50 | Structure (SMILES)
6 | 7.4e-08 M | Cc1c(-c2c(-c3ccc(F)cc3)sc3ncnc(OC(Cc4ccccc4)C(=O)O)c23)ccc(OCCN2CCN(C)CC2)c1Cl [Example 498, (2R)-2-{[(5Sa)-5-{3-chloro-2-methyl-4-[2-(4-methylpiperazin-1-yl)ethoxy]phenyl}-6-(4-fluorophenyl)thieno[2,3-d]pyrimidin-4-yl]oxy}-3-phenylpropanoic acid]
7 | 1.9e-08 M | Cc1c(-c2c(-c3ccccc3)sc3ncnc(OC(Cc4ccccc4)C(=O)O)c23)ccc(OCCN2CCN(C)CC2)c1Cl [Example 502, (2R)-2-[((5Sa)-5-{3-chloro-2-methyl-4-[2-(4-methylpiperazin-1-yl)ethoxy]phenyl}-6-phenylthieno[2,3-d]pyrimidin-4-yl)oxy]-3-phenylpropanoic acid]
8 | 2.9e-08 M | Cc1c(-c2c(-c3ccco3)sc3ncnc(OC(Cc4ccccc4)C(=O)O)c23)ccc(OCCN2CCN(C)CC2)c1Cl [Example 504, (2R)-2-{[(5Sa)-5-{3-chloro-2-methyl-4-[2-(4-methylpiperazin-1-yl)ethoxy]phenyl}-6-(furan-2-yl)thieno[2,3-d]pyrimidin-4-yl]oxy}-3-phenylpropanoic acid]
9 | 5.8e-08 M | Cc1c(-c2c(-c3cccs3)sc3ncnc(OC(Cc4ccccc4)C(=O)O)c23)ccc(OCCN2CCN(C)CC2)c1Cl [Example 505, (2R)-2-{[(5Sa)-5-{3-chloro-2-methyl-4-[2-(4-methylpiperazin-1-yl)ethoxy]phenyl}-6-(thiophen-2-yl)thieno[2,3-d]pyrimidin-4-yl]oxy}-3-phenylpropanoic acid]
10 | 8.4e-08 M | Cc1nc(-c2sc3ncnc(OC(Cc4ccccc4)C(=O)O)c3c2-c2ccc(OCCN3CCN(C)CC3)c(Cl)c2C)cs1 [Example 515, (2R)-2-{[(5Sa)-5-{3-chloro-2-methyl-4-[2-(4-methylpiperazin-1-yl)ethoxy]phenyl}-6-(2-methyl-1,3-thiazol-4-yl)thieno[2,3-d]pyrimidin-4-yl]oxy}-3-phenylpropanoic acid]
